Assay results taken from paper PMC11272598, “RG7774 (Vicasinabin), an orally bioavailable cannabinoid receptor 2 (CB2R) agonist, decreases retinal vascular permeability, leukocyte adhesion, and ocular inflammation in animal models” (Frontiers in Pharmacology, 2024).
Values joined by “and” are separate entries in the source; they are usually repeats but may differ in a detail not shown here. Identical values can stand only once.

Tests used:
5-HT2C (h) = 5-HT2C (h) (Homo sapiens, UniProt P28335); assay: CEREP radioligand binding; settings: radioligand [^3H]-mesulergine
Description: (§1) Supplement Table1.docx, table 3: Supplementary Table S3. RG7774 binding to non-CB1R/CB2R receptors, ion channels, transporters, and enzymes (CEREP, Celle l’Evescault, France; http://www.cerep.fr). | column: % inhibition of control SB (n = 2)

κ(KOP) = κ(KOP) (Rattus norvegicus, UniProt P34975); assay: CEREP radioligand binding; settings: radioligand [^3H]-U 69593
Chain of κ(KOP) (P34975 whole entry): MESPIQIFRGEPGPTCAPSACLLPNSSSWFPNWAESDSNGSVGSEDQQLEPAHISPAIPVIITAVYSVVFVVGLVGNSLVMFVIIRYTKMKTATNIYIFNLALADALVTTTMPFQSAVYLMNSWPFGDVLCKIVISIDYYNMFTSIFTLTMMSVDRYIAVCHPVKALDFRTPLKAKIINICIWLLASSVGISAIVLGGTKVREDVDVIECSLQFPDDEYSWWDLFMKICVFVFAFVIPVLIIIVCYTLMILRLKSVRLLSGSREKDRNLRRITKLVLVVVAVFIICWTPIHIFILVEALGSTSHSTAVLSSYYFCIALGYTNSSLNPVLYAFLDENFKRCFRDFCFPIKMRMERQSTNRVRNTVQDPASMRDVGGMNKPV
Description: as §1

H1 (h) = H1 (h) (Homo sapiens, UniProt P35367); assay: CEREP radioligand binding; settings: radioligand [^3H]-pyrilamine
Chain of H1 (h) (P35367 whole entry): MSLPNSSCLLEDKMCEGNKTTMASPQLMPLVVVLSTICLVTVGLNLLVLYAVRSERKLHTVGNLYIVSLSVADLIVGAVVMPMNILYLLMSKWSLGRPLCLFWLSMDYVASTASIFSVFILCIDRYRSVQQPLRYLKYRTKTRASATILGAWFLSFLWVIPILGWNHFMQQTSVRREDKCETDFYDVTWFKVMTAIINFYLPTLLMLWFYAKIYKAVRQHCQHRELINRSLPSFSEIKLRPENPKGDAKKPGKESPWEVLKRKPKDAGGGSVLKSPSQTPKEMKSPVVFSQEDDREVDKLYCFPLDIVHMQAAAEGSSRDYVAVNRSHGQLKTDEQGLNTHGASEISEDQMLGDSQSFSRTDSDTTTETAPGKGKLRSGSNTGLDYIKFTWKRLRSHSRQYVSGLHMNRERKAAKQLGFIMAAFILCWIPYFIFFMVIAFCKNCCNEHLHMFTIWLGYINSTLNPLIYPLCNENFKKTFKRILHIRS
Description: as §1

5-HT3 (h) = 5-HT3 (h) (Homo sapiens, UniProt P46098); assay: CEREP radioligand binding; settings: radioligand [^3H]-BRL 43694
Chain of 5-HT3 (h) (P46098 24-478): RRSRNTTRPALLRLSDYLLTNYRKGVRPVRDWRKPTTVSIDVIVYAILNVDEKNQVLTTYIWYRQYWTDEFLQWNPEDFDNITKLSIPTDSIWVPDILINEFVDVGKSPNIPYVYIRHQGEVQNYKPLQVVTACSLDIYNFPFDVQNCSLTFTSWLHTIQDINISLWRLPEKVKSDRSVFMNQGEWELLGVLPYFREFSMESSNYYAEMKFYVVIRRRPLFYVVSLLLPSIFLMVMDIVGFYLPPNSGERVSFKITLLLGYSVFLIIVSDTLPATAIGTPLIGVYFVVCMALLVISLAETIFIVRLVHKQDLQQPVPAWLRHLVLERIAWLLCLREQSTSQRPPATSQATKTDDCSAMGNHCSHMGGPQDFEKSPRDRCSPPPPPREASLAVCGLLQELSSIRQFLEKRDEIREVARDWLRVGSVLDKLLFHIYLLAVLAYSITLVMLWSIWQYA
Description: as §1

MC4 (h) = MC4 (h) (Homo sapiens, UniProt P32245); assay: CEREP radioligand binding; settings: radioligand [^125I]-NDP-α-MSH
Chain of MC4 (h) (P32245 whole entry): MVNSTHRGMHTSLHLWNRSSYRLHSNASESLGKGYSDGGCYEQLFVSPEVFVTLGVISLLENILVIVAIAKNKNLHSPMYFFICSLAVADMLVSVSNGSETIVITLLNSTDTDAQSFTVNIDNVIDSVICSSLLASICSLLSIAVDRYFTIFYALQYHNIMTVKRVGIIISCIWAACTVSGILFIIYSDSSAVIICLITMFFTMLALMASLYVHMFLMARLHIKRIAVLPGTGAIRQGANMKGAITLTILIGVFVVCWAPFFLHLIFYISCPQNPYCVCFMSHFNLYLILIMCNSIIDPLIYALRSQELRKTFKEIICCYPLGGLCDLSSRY
Description: as §1

SKCa channel = assay: CEREP radioligand binding; settings: radioligand [^125I]-apamin
Description: as §1

Dopamine transporter (h) = Dopamine transporter (h) (Homo sapiens, UniProt Q01959); assay: CEREP radioligand binding; settings: radioligand [^3H]-BTCP
Chain of Dopamine transporter (h) (Q01959 whole entry): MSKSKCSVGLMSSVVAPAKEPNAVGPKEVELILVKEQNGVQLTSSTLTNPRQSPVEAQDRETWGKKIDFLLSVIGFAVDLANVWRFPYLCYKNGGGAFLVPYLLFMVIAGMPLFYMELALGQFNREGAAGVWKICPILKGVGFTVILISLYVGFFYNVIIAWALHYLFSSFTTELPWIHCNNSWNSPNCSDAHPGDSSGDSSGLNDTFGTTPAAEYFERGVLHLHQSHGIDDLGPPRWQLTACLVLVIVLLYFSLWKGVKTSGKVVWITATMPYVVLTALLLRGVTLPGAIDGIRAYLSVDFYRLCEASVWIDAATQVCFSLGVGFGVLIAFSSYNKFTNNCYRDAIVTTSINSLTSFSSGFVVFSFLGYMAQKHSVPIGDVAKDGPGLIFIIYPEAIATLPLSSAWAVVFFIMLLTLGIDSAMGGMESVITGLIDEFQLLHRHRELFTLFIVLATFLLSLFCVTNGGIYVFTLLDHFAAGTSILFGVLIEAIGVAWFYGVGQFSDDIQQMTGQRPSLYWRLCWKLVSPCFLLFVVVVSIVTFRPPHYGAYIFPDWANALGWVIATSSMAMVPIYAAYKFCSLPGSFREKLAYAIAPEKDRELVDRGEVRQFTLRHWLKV
Description: as §1

H2 (h) = H2 (h) (Homo sapiens, UniProt P25021); assay: CEREP radioligand binding; settings: radioligand [^125I]-APT
Chain of H2 (h) (P25021 whole entry): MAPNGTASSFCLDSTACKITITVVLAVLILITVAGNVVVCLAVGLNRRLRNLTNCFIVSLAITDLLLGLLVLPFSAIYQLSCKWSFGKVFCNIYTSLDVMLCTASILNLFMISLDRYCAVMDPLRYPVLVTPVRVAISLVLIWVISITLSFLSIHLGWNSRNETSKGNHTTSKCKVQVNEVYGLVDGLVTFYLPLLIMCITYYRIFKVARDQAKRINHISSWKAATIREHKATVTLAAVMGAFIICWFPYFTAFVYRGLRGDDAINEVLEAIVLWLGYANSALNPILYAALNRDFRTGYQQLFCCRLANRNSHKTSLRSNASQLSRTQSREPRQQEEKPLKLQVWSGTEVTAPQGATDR
Description: as §1

M1 (h) = M1 (h) (Homo sapiens, UniProt P11229); assay: CEREP radioligand binding; settings: radioligand [^3H]-pirenzepine
Chain of M1 (h) (P11229 whole entry): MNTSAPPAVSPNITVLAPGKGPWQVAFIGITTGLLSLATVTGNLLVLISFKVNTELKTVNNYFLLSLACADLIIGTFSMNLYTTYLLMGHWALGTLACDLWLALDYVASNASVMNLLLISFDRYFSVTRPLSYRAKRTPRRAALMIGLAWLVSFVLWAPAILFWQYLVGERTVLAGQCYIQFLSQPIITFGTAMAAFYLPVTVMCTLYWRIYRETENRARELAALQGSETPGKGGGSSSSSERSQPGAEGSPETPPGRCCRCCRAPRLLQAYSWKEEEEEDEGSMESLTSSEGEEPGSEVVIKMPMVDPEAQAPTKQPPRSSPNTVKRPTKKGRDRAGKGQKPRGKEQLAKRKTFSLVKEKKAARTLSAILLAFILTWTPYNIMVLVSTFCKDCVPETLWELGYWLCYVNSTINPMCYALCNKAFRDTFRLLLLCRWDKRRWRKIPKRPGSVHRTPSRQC
Description: as §1

A2A (h) = A2A (h) (Homo sapiens, UniProt P29274); assay: CEREP radioligand binding; settings: radioligand [^3H]-CGS 21680
Description: as §1

BB (non-selective) = assay: CEREP radioligand binding; settings: radioligand [^125I]-[Tyr^4]bombesin
Description: as §1

NK1 (h) = NK1 (h) (Homo sapiens, UniProt P25103); assay: CEREP radioligand binding; settings: radioligand [^125I]-BH-SP
Chain of NK1 (h) (P25103 whole entry): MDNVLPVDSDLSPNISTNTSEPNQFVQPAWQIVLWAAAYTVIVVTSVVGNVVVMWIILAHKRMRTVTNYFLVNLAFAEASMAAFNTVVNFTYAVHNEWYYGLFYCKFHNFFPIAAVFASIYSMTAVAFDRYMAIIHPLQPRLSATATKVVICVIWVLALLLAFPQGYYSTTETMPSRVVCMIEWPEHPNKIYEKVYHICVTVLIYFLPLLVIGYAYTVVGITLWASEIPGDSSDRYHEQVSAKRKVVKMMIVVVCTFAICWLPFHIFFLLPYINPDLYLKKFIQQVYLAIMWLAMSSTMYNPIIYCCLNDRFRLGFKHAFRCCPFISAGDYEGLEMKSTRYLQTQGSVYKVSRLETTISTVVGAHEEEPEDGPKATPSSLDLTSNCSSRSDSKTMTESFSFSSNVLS
Description: as §1

CCK1 (CCKA) (h) = CCK1 (CCKA) (h) (Homo sapiens, UniProt P32238); assay: CEREP radioligand binding; settings: radioligand [^125I]-CCK-8s
Chain of CCK1 (CCKA) (h) (P32238 whole entry): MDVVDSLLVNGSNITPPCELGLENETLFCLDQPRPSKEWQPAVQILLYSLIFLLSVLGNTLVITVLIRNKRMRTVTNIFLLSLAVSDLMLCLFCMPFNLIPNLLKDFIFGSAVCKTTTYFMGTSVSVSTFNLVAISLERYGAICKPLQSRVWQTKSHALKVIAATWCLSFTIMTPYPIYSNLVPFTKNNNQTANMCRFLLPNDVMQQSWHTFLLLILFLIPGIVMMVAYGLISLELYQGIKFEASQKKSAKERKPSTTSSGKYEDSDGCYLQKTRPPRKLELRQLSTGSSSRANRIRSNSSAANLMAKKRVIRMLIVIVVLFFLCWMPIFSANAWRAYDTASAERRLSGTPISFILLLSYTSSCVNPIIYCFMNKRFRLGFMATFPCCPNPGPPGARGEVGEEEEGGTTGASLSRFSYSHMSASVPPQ
Description: as §1

TNF-α = assay: CEREP radioligand binding; settings: radioligand [^125I]-TNF-α
Description: as §1

Jurkat cells = assay: xCELLigence impedance assay in Jurkat cells; type: cell-based, human; settings: xCELLigence, 1 h
Procedure: Background impedance was determined in 96-well RTCA E-plates (Agilent Technologies, Santa Clara, CA, United States) coated with 150 μg/mL fibronectin/H2O (Sigma-Aldrich, St. Louis, MO, United States) and containing 50 μL RPMI 1640 assay medium (Fisher Scientific, Schwerte, Germany) 31870) with 10% fetal calf serum (FCS). Jurkat cells (200,000 cells per well) were seeded in 100 μL of growth medium, allowed to settle for 30 min at RT, and cultured overnight at 37°C and 5% CO2. Dose-response curves were generated by adding increasing concentrations of RG7774 to seeded Jurkat cells and performing impedance measurements (xCelligence RTCA M, Agilent Technologies, Santa Clara, CA, United States) at baseline and 1 h after treatment. Displacement experiments were performed by incubating seeded Jurkat cells with 10 μM SR144528, a CB2R-selective antagonist (Tocris Bioscience, Bristol, United Kingdom) or 10 μM RO6851228 (a CB2R-selective inverse agonist; in-house synthesis) in assay medium overnight at 37°C and 5% CO2. Cells were re-treated with 10 μM SR144528 or […] for 1 h and stimulated with 233 nM RG7774 in assay medium. […] Displacement data are presented as the percentage of the maximal normalized cell index determined after antagonist/inverse agonist treatment relative to the percentage of the normalized cell index at 109 nM RG7774 treatment.

Human MAGL = molecular target: T1, Human MAGL (Homo sapiens, UniProt Q99685); assay: Human MAGL assay (U937 cell extracts); type: biochemical; settings: RG7774 10 µM; read-out: Mean ± SEM % inhibition of control, Human MAGL
T1 construct: Mouse brain or human U937 cell extracts (ATCC, Manassas, VI, USA); host or cells: U937 cells, 100,000 g supernatant
T1 sequence (Q99685 whole entry): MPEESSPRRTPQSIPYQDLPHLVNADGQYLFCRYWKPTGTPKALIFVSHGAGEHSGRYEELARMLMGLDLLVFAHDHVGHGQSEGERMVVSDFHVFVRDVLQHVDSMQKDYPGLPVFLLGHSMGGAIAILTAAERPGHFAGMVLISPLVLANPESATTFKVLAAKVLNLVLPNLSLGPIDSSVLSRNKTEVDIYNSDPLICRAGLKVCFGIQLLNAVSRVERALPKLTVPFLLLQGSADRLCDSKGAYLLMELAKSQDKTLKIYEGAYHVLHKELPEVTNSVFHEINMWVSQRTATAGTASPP
Procedure: (§2) The final supernatant was incubated with [^3H]-2-OG (10 µM) (ARC, MO, USA) at 37°C for 30 min as previously described, and reactions were stopped with a 2:1 (v/v) mixture of chloroform/methanol. [^3H]-glycerol release in the aqueous phase was measured by scintillation counting. […] Human supernatant (100 µg) was preincubated for 15 min at RT with 8 different concentrations of RG7774 (0.1-500 µM) in the incubation medium.

Mouse MAGL = molecular target: T2, Mouse MAGL (Mus musculus, UniProt O35678); assay: Mouse MAGL assay (brain); type: biochemical; settings: RG7774 10 µM; read-out: Mean ± SEM % inhibition of control, Mouse MAGL
T2 construct: Mouse brain or human U937 cell extracts (ATCC, Manassas, VI, USA); from tissue; host or cells: mouse brain, 100,000 g supernatant
T2 sequence (O35678 whole entry): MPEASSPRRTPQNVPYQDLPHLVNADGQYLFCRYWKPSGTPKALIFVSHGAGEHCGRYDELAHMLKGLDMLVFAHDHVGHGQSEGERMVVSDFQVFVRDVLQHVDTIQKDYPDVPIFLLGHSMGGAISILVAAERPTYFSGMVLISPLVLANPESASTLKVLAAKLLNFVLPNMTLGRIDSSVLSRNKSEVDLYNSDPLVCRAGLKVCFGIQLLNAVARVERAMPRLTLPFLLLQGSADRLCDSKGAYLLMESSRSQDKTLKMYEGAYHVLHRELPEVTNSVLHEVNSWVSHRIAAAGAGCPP
Procedure: as §2

human CB2R = molecular target: T3, human CB2R (Homo sapiens, UniProt P34972); assay: PathHunter β-arrestin recruitment assay in CHO cells; type: cell-based
T3 construct: bgal (beta-galactosidase fragment of the PathHunter system); host or cells: CHO-K1
T3 sequence (P34972 whole entry, the tested form may be a part): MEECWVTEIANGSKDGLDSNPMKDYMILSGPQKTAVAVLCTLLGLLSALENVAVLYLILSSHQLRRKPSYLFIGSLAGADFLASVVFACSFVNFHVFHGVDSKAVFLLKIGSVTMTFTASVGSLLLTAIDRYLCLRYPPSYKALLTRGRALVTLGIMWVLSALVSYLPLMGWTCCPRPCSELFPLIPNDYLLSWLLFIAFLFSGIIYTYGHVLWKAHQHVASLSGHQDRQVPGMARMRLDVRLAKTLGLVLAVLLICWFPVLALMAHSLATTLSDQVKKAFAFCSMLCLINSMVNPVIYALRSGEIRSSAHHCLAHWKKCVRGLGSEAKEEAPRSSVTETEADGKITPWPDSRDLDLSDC
Procedure: Assays were carried out using the PathHunter hCB2_bgal CHOK1 β-arrestin recruitment assay kit (DiscoveRx, Fremont, CA, United States) as previously described ([Soethoudt et al., 2017]). A total of 5,000 cells per well were seeded in 384-well plates (PerkinElmer, Waltham, MA, United States) containing 20 μL cell culture medium and incubated for 16–18 h at 37°C in 5% CO2. Cells were stimulated with RG7774 and incubated for 1.5 h at 37°C in 5% CO2. As the RG7774 stock solution was 100% DMSO, the final concentration of DMSO per assay point was diluted to 0.1%. PathHunter Detection mixture was used to determine β-galactosidase enzyme activity according to the manufacturer’s protocol. Detection mixture (12 µL per well) was added, and the plate was incubated for 1 h in the dark at RT. Chemiluminescence (indicated as relative light units) was measured on an EnVision multilabel plate reader (PerkinElmer, Waltham, MA, United States).

## Cn1nnnc1Cn1nnc2c(N3CC[C@H](O)C3)nc(C(C)(C)C)nc21 [RG7774, (S)-1-(5-tert-butyl-3-[(1-methyl-1H-tetrazol-5-yl)methyl]-3H-[1,2,3]triazolo[4,5-d]pyrimidin-7-yl)pyrrolidin-3-ol]
5-HT2C (h)
  % inhibition of control SB (n = 2): 2.7%
κ(KOP)
  % inhibition of control SB (n = 2): –12.7%
H1 (h)
  % inhibition of control SB (n = 2): –8.8%
5-HT3 (h)
  % inhibition of control SB (n = 2): 1.4%
MC4 (h)
  % inhibition of control SB (n = 2): –14.5%
SKCa channel
  % inhibition of control SB (n = 2): 8.6%
Dopamine transporter (h)
  % inhibition of control SB (n = 2): 4.9%
H2 (h)
  % inhibition of control SB (n = 2): –2.3%
M1 (h)
  % inhibition of control SB (n = 2): –15.6%
A2A (h)
  % inhibition of control SB (n = 2): 12.4%
BB (non-selective)
  % inhibition of control SB (n = 2): –9.5%
NK1 (h)
  % inhibition of control SB (n = 2): –3.7%
CCK1 (CCKA) (h)
  % inhibition of control SB (n = 2): –7.4%
TNF-α
  % inhibition of control SB (n = 2): 4.9%
Jurkat cells
  EC50, cell index relative to maximal cell index of RG7774 at 233 nM: 10.8 nM and 10.8 ± 4.2 nM
Human MAGL
  inhibition at 10 µM: -9.7%
Mouse MAGL
  inhibition at 10 µM: 2.7 ± 11.7%
Human CB2R
  EC50: 99.7 ± 5.72 nM
